{"source": "patent US11980625B2", "about": "“Ganaxolone for use in treating tuberous sclerosis complex” (Marinus Pharmaceuticals, Inc., priority 2019, dated 2024)", "key": {"[1]": {"tested_on": "patients with CDKL5 deficiency disorder (CDD)", "assay": "Preliminary PK/PD analysis of phase 3 trial in CDKL5 deficiency disorder (CDD)", "format": "in vivo, human", "description": "Global, randomized, double-blind, placebo-controlled phase 3 clinical trial to assess the safety and efficacy of adjunctive ganaxolone for the treatment of seizures associated with CDD. Patients aged 2 to 21 years with a pathogenic or likely pathogenic mutation of the CDKL5 gene, neurodevelopmental impairment, and seizures refractory to treatment with at least 2 prior antiseizure medications who experienced at least 16 seizures per 28 days during the 2 months prior to screening were eligible to enroll. Study consisted of a 6-week baseline followed by a 17-week double-blind phase (ganaxolone or placebo, 1:1). The dose of ganaxolone 50 mg/mL suspension was titrated over 4 weeks to 63 mg/kg/day (21 mg/kg TID), not to exceed 1800 mg/d (600 mg TID), or to the maximum tolerated dose. Blood draws for PK analysis were scheduled to occur at visit 3 (week 5), visit 4 (week 9), and visit 5 (week 17).\nMean ganaxolone concentration was calculated for each subject using available results from up to three laboratory determinations during the double-blind phase. Linear regression was conducted using arithmetic- and natural logarithm-transformed percent reduction in major motor seizures (loge [percent reduction+100]) as dependent variable and natural logarithm-transformed mean ganaxolone concentration as the single explanatory variable. Regression diagnostics included examination of residual and normal probability plots and determination of outliers and influential values. Cases with standardized residuals >2 or <−2 were excluded from the model and the regression was repeated.\nThe resulting sample was utilized in determination of a Pearson correlation coefficient (using log-transformed values). Additionally, percent seizure reduction was compared in three tertiles representing low (N=13), medium (N=13) and high (N=12) mean per subject ganaxolone concentrations using a Kruskal-Wallis test."}, "[2]": {"tested_on": "mouse model of posttraumatic stress disorder (PTSD)", "conditions": "in vivo; cited from earlier work"}, "[3]": {"tested_on": "rats and dogs", "assay": "Toxicology studies (oral and IV programmes)", "format": "in vivo", "description": "When given IV to rats and dogs, the main dose limiting toxicity finding was sedation. The no observed adverse effect level (NOAEL) after IV dosing in rats for 14 days was established at 42 mg/kg/day for males and 30 mg/kg/day for females. The NOAEL in dog after administration of ganaxolone by IV bolus followed by continuous IV infusion for 28 days was 7.20 mg/kg/day, which corresponded to a steady-state concentration of approximately 330 ng/mL and 333 ng/mL. There were no findings in a local tolerance study in rabbits."}, "[4]": {"conditions": "human plasma following oral administration; cited from earlier work"}}, "data": [{"compound": "CC(=O)[C@H]1CC[C@H]2[C@@H]3CC[C@H]4C[C@](C)(O)CC[C@]4(C)[C@H]3CC[C@]12C", "note": "[Ganaxolone, 3α-hydroxy-3β-methyl-5α-pregnan-20-one]", "values": [{"measurement": "Mean percentage change in major motor seizures (per 28 days)", "setting": "[1]; High tertile (n = 12)", "value": "−44.3", "unit": "%"}, {"measurement": "Median percentage change in major motor seizures (per 28 days)", "setting": "[1]; High tertile (n = 12)", "value": "−46.0", "unit": "%"}, {"measurement": "Mean percentage change in major motor seizures (per 28 days)", "setting": "[1]; Low tertile (n = 13)", "value": "−6.5", "unit": "%"}, {"measurement": "Median percentage change in major motor seizures (per 28 days)", "setting": "[1]; Low tertile (n = 13)", "value": "−8.4", "unit": "%"}, {"measurement": "Mean percentage change in major motor seizures (per 28 days)", "setting": "[1]; Median tertile (n = 13)", "value": "−30.3", "unit": "%"}, {"measurement": "Median percentage change in major motor seizures (per 28 days)", "setting": "[1]; Median tertile (n = 13)", "value": "−39.5", "unit": "%"}, {"measurement": "seizure reduction predicted at a plasma concentration of approximately 100 ng/mL", "setting": "[1]; back-transformation of log values, CDD participants", "value": "approximately 40%"}, {"measurement": "plasma ganaxolone level (mean+standard deviation)", "setting": "[1]; forty-four participants, 50 mg/mL suspension titrated to 63 mg/kg/day (max 1800 mg/d) TID", "value": "103.5+79.2 ng/mL"}, {"measurement": "behaviour in PTSD mouse model", "setting": "[2]", "value": "decreased aggression and social isolation-induced anxiety-like behaviour"}, {"measurement": "main dose limiting toxicity finding", "setting": "[3]; IV to rats and dogs", "value": "sedation"}, {"measurement": "most common effect in toxicology studies", "setting": "[3]; in vivo", "value": "dose-related sedation"}, {"measurement": "target organ or systemic toxicity", "setting": "[3]; oral and IV programmes, single- or multiple-dose", "value": "little evidence of target organ or systemic toxicity"}, {"measurement": "half-life", "setting": "[4]", "value": "approximately 20 hours"}]}]}
